Like-named read-outs stand apart in the source and are kept apart here.
Legend:
[1] = system: T. cruzi epimastigotes, INC-5 strain; assay: Growth inhibition of T. cruzi epimastigotes, INC-5 strain; type: cell-based, Trypanosoma cruzi; settings: Trypanosoma cruzi, 120 h, read-out: Epi INC-5 IC50
Experimental: (§1) Epimastigotes from T. cruzi strains NINOA and INC-5 were cultured in BHI (brain heart infusion broth, 89%) axenic medium, as reported in [26], at an initial concentration of 1 × 10^6 parasites/mL, at 28 °C, supplemented with 10% foetal bovine serum and 1% sodium penicillin-streptomycin. […] On the last day, the absorbance of the cultures was measured and related to the control. All measurements were carried out in triplicate. No toxic effect was attributable to DMSO. Since parasite growth is exponential, the data were analysed according to a first order equation, and the respective growth constant (k), corresponding to the slope, was calculated for controls and parasites treated with different drug concentrations. From these measurements, percentage growth inhibition (%GI) and half-maximal inhibitory concentration (IC50) values were calculated.

J774 murine macrophages = assay: Cytotoxicity on J774 macrophages (MTT); type: cell-based
Experimental: Cytotoxicity assays for the compounds selected for their trypanocidal activity were performed on J774 macrophage cells using the MTT method. For this purpose, 50,000 cells/well resuspended in RPMI medium and 2% foetal bovine serum were seeded in a 96-well plate and incubated for 24 h at 37 °C. […] After 24 h of incubation, the existing culture medium was replaced in the plate with fresh culture medium along with […] each of the compound dilutions (100 to 1.25 μM) and Bzn to a final volume of 100 µL per well. This plate was then incubated in 5% CO2 for 24 h at 37 °C. The controls used were cells with medium as a positive control and cells without culture medium as a negative control. After the 24 h incubation, the morphology of the macrophages was observed under a microscope and then the culture medium was removed again and the MTT solution (5 mg/mL) was added. After 1 h incubation at 37 °C, the absorbance at 570 nm was recorded on an Elisa Epoch reader. The following formula was used to calculate the % cytotoxicity: %cytotoxicity = (100 − (mean number of cells with treatment/cells without treatment) × 100).

[2] = system: T. cruzi epimastigotes, NINOA strain; assay: Growth inhibition of T. cruzi epimastigotes, NINOA strain; type: cell-based; settings: Trypanosoma cruzi, 120 h, read-out: Epi NINOA IC50
Experimental: as §1

[3] = system: T. cruzi trypomastigotes, INC-5 strain; assay: microbe, parasite or virus in culture; type: cell-based; settings: Trypanosoma cruzi, read-out: Trypo INC-5 LC50 (half-maximal lytic concentration)
Experimental: (§2) Those compounds with the lowest IC50 values in the epimastigote studies of each strain were evaluated in trypomastigotes. For this purpose, bloodstream trypomastigotes of INC-5 and NINOA strains were used for peritoneal injection into 6−8-week-old CD1 mice. The peak of parasitemia was achieved after 4–6 weeks, at which time parasitised blood samples were obtained by cardiac puncture using sodium heparin as an anticoagulant and diluted to a concentration of 1 × 10^6 trypomastigotes/mL. 10 µL of each of the dilutions of the study compounds and Bzn, with these being placed in a 96-well plate, and 90 µL of infected blood was added, providing a final volume of 100 µL per well. The microplates were incubated at 4 °C for 24 h, and concentrations of 20 µM, 10 µM, and 5 µM of each compound were considered in these experiments. Each evaluation was performed in triplicate. Wells with untreated blood trypomastigotes were used as a negative lysis control and Bzn as a positive control. Then, the degree of lysis of trypomastigotes was determined by their reduction in number using an optical microscope according to the Brener–Pizzi method. For this purpose, 5 μL of blood was placed between a slide and a 13 × 13 coverslip. Mobile trypomastigotes were counted in 15 microscope fields at 40× magnification. Quantification of the degree of lysis for each case was expressed as a percentage considering the number of viable trypomastigotes with respect to the negative control. The half-maximal lytic concentration (LC50) was determined by linear regression. The experiments were carried out in accordance with the recommendations and approval of the local Ethics and Research Committee (Approval number: ENCB/CEI/078/2020).

[4] = system: T. cruzi trypomastigotes, NINOA strain; assay: microbe, parasite or virus in culture; type: cell-based; settings: Trypanosoma cruzi, read-out: Trypo NINOA LC50 (half-maximal lytic concentration)
Experimental: as §2

[5] = epimastigotes, INC-5 strain, five days, means of three independent experiments
[6] = Mus musculus, J774, 24 h, J774 macrophages, MTT, 24 h, read-out: J774 IC50
[7] = epimastigotes, NINOA strain, five days, means of three independent experiments
[8] = bloodstream trypomastigotes, INC-5 strain, 24 h at 4 °C
[9] = bloodstream trypomastigotes, NINOA strain, 24 h at 4 °C

| IC50 [1, 5] [µM] | IC50 [2, 7] [µM] | Structure (SMILES) | LC50 [3, 8] [µM] | LC50 [4, 9] [µM] | further results |
| --- | --- | --- | --- | --- | --- |
| 1.35 ± 0.01 | 0.84 ± 0.11 | COc1ccc(C(=O)NC2CCN(C3=C(Cl)C(=O)c4ccccc4C3=O)CC2)cc1F [Compound 7h, N-(1-(3-chloro-1,4-dioxo-1,4-dihydronaphthalen-2-yl)piperidin-4-yl)-3-fluoro-4-methoxybenzamide] | 94.7 ± 5.21 | 78.6 ± 3.91 | IC50 (J774 murine macrophages; J774 macrophages, MTT, 24 h, read-out: J774 IC50): 22 µM; IC50 (J774 murine macrophages; [6]): ~25 µM |
| 3.35 ± 0.05 | 1.09 ± 0.01 | O=C1C(Cl)=C(N2CCC(NC(=O)c3ccc(C(F)(F)F)cc3[N+](=O)[O-])CC2)C(=O)c2ccccc21 [Compound 7i, N-(1-(3-chloro-1,4-dioxo-1,4-dihydronaphthalen-2-yl)piperidin-4-yl)-2-nitro-4-(trifluoromethyl)benzamide] | > 100 | 90.5 ± 6.58 | – |
| 2.23 ± 0.06 | 0.77 ± 0.21 | O=C(NC1CCN(C2=C(Cl)C(=O)c3ccccc3C2=O)CC1)c1ccc([N+](=O)[O-])cc1 [Compound 7b, N-(1-(3-chloro-1,4-dioxo-1,4-dihydronaphthalen-2-yl)piperidin-4-yl)-4-nitrobenzamide] | > 100 | 80.3 ± 4.03 | – |
| 2.3 ± 0.11 | 1.25 ± 0.06 | O=C(NC1CCN(C2=C(Cl)C(=O)c3ccccc3C2=O)CC1)c1ccc(CCl)cc1 [Compound 7d, N-(1-(3-chloro-1,4-dioxo-1,4-dihydronaphthalen-2-yl)piperidin-4-yl)-4-(chloromethyl)benzamide] | > 100 | > 100 | – |
| 1.14 ± 0.07 | 0.52 ± 0.04 | O=C(NC1CCN(C2=C(Cl)C(=O)c3ccccc3C2=O)CC1)c1cccc(Cl)c1 [Compound 7c, 3-Chloro-N-(1-(3-chloro-1,4-dioxo-1,4-dihydronaphthalen-2-yl)piperidin-4-yl)benzamide] | > 100 | 68.4 ± 6.3 | IC50 (J774 murine macrophages; [6]): ~25 µM |
| 2.46 ± 0.08 | 6.41 ± 0.02 | O=C(NC1CCN(C2=C(Cl)C(=O)c3ccccc3C2=O)CC1)c1ccccc1Br [Compound 7a, 2-Bromo-N-(1-(3-chloro-1,4-dioxo-1,4-dihydronaphthalen-2-yl)piperidin-4-yl)benzamide] | – | – | melting point: 197 to 198 °C |
| 5.6 ± 0.03 | 4.45 ± 0.06 | Cc1cc(C)cc(C(=O)NC2CCN(C3=C(Cl)C(=O)c4ccccc4C3=O)CC2)c1 [Compound 7e, N-(1-(3-chloro-1,4-dioxo-1,4-dihydronaphthalen-2-yl)piperidin-4-yl)-3,5-dimethylbenzamide] | – | – | melting point: 206 to 208 °C |
| 2.57 ± 0.04 | 3.55 ± 0.02 | O=C(NC1CCN(C2=C(Cl)C(=O)c3ccccc3C2=O)CC1)c1cc(F)cc(Cl)c1 [Compound 7g, 3-Chloro-N-(1-(3-chloro-1,4-dioxo-1,4-dihydronaphthalen-2-yl)piperidin-4-yl)-5-fluorobenzamide] | > 100 | > 100 | – |

The next lines start with the compound.

| Structure (SMILES) | IC50 [1, 5] [µM] | IC50 [2, 7] [µM] | LC50 [3, 8] [µM] | LC50 [4, 9] [µM] | further results |
| --- | --- | --- | --- | --- | --- |
| O=C1C(Br)=C(NCCN2CCOCC2)C(=O)c2ccccc21 [Compound 2c, 2-Bromo-3-((2-morpholinoethyl)amino)naphthalene-1,4-dione] | 2.22 ± 0.04 | 1.14 ± 0.06 | > 100 | > 100 | – |
| O=C1C(Cl)=C(NCCN2CCOCC2)C(=O)c2ccccc21 [Compound 2b, 2-Chloro-3-((2-morpholinoethyl)amino)naphthalene-1,4-dione] | 2.98 ± 0.2 | 1.1 ± 0.05 | > 100 | > 100 | – |
| O=C1C(Br)=C(N2CCC(N3CCOCC3)CC2)C(=O)c2ccccc21 [Compound 2i, 2-Bromo-3-(4-morpholinopiperidin-1-yl)naphthalene-1,4-dione] | 1.74 ± 0.02 | 10.1 ± 0.05 | – | – | melting point: 148 to 149 °C |
| O=C1C=C(N2CCC(N3CCOCC3)CC2)C(=O)c2ccccc21 [Compound 2g, 2-(4-Morpholinopiperidin-1-yl)naphthalene-1,4-dione] | 8.45 ± 0.35 | 7.05 ± 0.95 | – | – | melting point: 151 to 153 °C |
| O=C1C=C(N2CCN(C3CCCC3)CC2)C(=O)c2ccccc21 [Compound 2d, 2-(4-Cyclopentylpiperazin-1-yl)naphthalene-1,4-dione] | 5.04 ± 0.26 | 1.12 ± 0.04 | 87.3 ± 5.32 | > 100 | – |
| O=C1C(Cl)=C(N2CCC(N3CCOCC3)CC2)C(=O)c2ccccc21 [Compound 2h, 2-Chloro-3-(4-morpholinopiperidin-1-yl)naphthalene-1,4-dione] | 6.6 ± 0.08 | 6.4 ± 0.02 | – | – | melting point: 145 to 146 °C |
| O=C1C(Br)=C(N2CCN(C3CCCC3)CC2)C(=O)c2ccccc21 [Compound 2f, 2-Bromo-3-(4-cyclopentylpiperazin-1-yl)naphthalene-1,4-dione] | 1.46 ± 0.03 | 1.15 ± 0.09 | > 100 | 97.9 ± 2.13 | – |
| O=C(NC1CCN(C2=C(Cl)C(=O)c3ccccc3C2=O)CC1)c1cc([N+](=O)[O-])cc([N+](=O)[O-])c1 [Compound 7f, N-(1-(3-chloro-1,4-dioxo-1,4-dihydronaphthalen-2-yl)piperidin-4-yl)-3,5-dinitrobenzamide] | – | – | – | – | IC50 [1]: 1.84 ± 0.06 µM; IC50 (J774 murine macrophages; Mus musculus, J774, 24 h, read-out: J774 IC50, J774 macrophages, MTT, 24 h): ~25 µM; IC50 [2]: 0.99 ± 0.01 µM; LC50 ([3]; 24 h): 98.6 ± 8.2 µM; LC50 ([4]; 24 h): 70.9 ± 7.31 µM |
| O=C1C=C(NCCN2CCOCC2)C(=O)c2ccccc21 [Compound 2a, 2-((2-Morpholinoethyl)amino)naphthalene-1,4-dione] | 3.06 ± 0.01 | 1.1 ± 0.12 | > 100 | > 100 | – |
| O=C1C(Cl)=C(N2CCN(C3CCCC3)CC2)C(=O)c2ccccc21 [Compound 2e, 2-Chloro-3-(4-cyclopentylpiperazin-1-yl)naphthalene-1,4-dione] | – | 0.43 ± 0.15 | > 100 | > 100 | – |

Reference: article PMC9228152, “New Amino Naphthoquinone Derivatives as Anti-Trypanosoma cruzi Agents Targeting Trypanothione Reductase” (Pharmaceutics, 2022)
